The source of these data is patent publication US20260008784A1 (VASTHERA CO., LTD., priority 2022, published 2026).

Series [1] is described as follows: in vitro. The following applies: human.
Procedure: For cytotoxicity analysis, human aortic endothelial cells (HAEC) and smooth muscle cells (HASMC) were seeded in a 96-well culture plate at density of 4000 cells/well in a final volume of 100 μL. Cells were cultured for 24 h and serum-starved for an additional 18 h. Test compounds were serially diluted with EBM-2 culture medium, added to the plate at 100 μL/well, and further incubated for 24 h. The number of viable cells was measured using the WST-1 cell viability assay kit (Roche Diagnostics, USA). Cell number was expressed as absorbance values at 450 nm after subtracting the turbidity value at 600 nm. The absorbance values from three replicate wells were averaged.
After treatment with ascending concentrations of each compound, the concentration of test compound corresponding to 50% cell viability (CC50) was measured.
The subject of series [2] is yeast thioredoxin (Trx)/yeast Trx reductase (TR). In words: Peroxidase activity assay (H2O2 reduction, NADPH oxidation). Type of series: biochemical. Particulars: 50 μM test compound, 3 μM yeast Trx, 1.5 μM yeast TR, 250 μM NADPH, 1.2 mM H2O2, 30° C.; NADPH oxidized per minute. On the procedure: Hydrogen peroxide (H2O2)-reducing peroxidase activity of compounds in present invention was performed as follows. Peroxyredoxin activity was measured in reaction mixture (200 μL volume) containing 50 mM HEPES buffer (pH 7.0), 1 mM EDTA, 250 μM NADPH, 3 μM yeast thioredoxin (Trx), 1.5 μM yeast Trx reductase (TR), 50 μM test compound, and 1.2 mM H2O2.
Reaction was initiated by adding H2O2 and the decrease in absorbance at 340 nm was measured using Agilent UV8453 spectrophotometry (Hewlett Packard, USA) at 30° C. for 12 min. Initial reaction rate is the amount of NADPH oxidized per minute calculated from slope of the linear part of curve.
The H2O2-reducing peroxidase activity of the test compounds in present invention was measured in a reaction mixture containing thioredoxin (Trx)/thioredoxin reductase (TR), respectively.

Series [3] can be described thus: in vitro.
Procedure: Cytotoxicity tests were performed against vascular endothelial cells, vascular smooth muscle cells and hepatocytes. After treatment with ascending concentrations of each compound, the concentration of test compound corresponding to 50% cell viability (CC50) was measured.
The subject of another series is NIH-3T3 cells. In words: Intracellular H2O2-eliminating activity (CM-H2DCF-DA fluorescence). Format: cell-based. The following applies: Mus musculus, NIH3T3, glucose oxidase, concentration at 50% reduction of intracellular H2O2. On the procedure: The activity of test compounds in present invention to eliminate intracellular H2O2 was measured as follows. NIH-3T3 cells (ATCC) were seeded in a 35-mm culture dish at 2×10^5 cells/well. After culture for 24 hours, cells were serum-starved with phenol red free-basal DMEM containing 0.5% FBS for 6 h. Starved NIH 3T3 cells were pretreated with compounds diluted with phenol red free-basal DMEM at concentrations ([…]) for 30 min, followed by treatment with 20 mU of glucose oxidase (Gox) for 30 min. A reactive oxygen species-sensitive fluorescence dye, carboxymethyl-dichlorofluorescein-diacetate (CM-H2DCF-DA), which was prepared in 1 mM DMSO stock and diluted 500 times in phenol red free-basal DMEM, was added to the cells and incubated for 5 min. Then, cells were quickly rinsed with basal medium. Images were taken at excitation 497 nm/emission 518 nm settings using a fluorescence microscope. Three images at 10× magnification per sample were obtained, and fluorescence intensities from 30 or more individual cells per image were averaged.
The intracellular H2O2-eliminating activity of test compounds in present invention was measured using a live-cell imaging fluorescence probe (CM-HaDCF-DA). H2O2-eliminating activity was measured depending on ascending concentrations of the test compound and expressed as the percent of activity compared to the untreated control group. EC50 represents the concentration of test compound at 50% reduction of intracellular H2O2.

Series [4] deals with Tyr 857 phosphorylation of PDGF receptor-β (PDGFRβ) in HASMC. Description: Immunoblot of PDGF-mediated signaling in PrxII knock-down HASMC. Format: cell-based, human. Particulars: HASMC depleted of PrxII expression, FIG. 2. On the procedure: (§1) Cells were quickly washed in ice-cold phosphate-buffered saline (PBS) and lysed in extraction buffer containing 20 mM Hepes (pH 7.0), 1% Triton X-100, 150 mM NaCl, 10% glycerol, 1 mM EDTA, 2 mM EGTA, and 1 mM DTT, 5 mM Na3VO4, 5 mM NaF, 1 mM AEBSF, aprotinin (5 μg/mL), and leupeptin (5 μg/mL). After cen-trifugation at 12,000×g, the clarified cell extracts were used for immunoblotting. For re-blotting, the immunoblots were retrieved in a solution of 67 mM Tris (pH 6.7), 2% SDS, and 100 mM 2-mercaptoethanol at 60° C. for 30 min to remove antibodies and rinsed three times with a Tris-buffered saline (TBS) solution containing 1% Triton X-100. The retrieved membranes were subjected to new immunoblotting.
In human aortic smooth muscle cell (HASMC) and human pulmonary artery smooth muscle cell (PASMC) in which PrxII was knocked out by transfecting the PrxII siRNA, the ability of test compounds to replace the cellular function of PrxII was evaluated. That is, the efficacy of the new compounds was verified in terms of signaling pathways induced by PDGF that regulates the growth and migration of vascular smooth muscle cells in the aorta and pulmonary artery. Activation of PDGF-induced signaling pathway was analyzed by an immunoblot method using an antibody that specifically recognizes phosphorylation of Tyr 857, which is a major phosphorylation site on PDGF receptor (PDGFRβ).
In general terms: Immunoblotting shows a protein as a band on a membrane.

Series [5] can be described thus: Measurement of redox potential (DTT redox buffers, HPLC). Format: physicochemical. Particulars: DTT(Red)/DTT(Ox) redox buffers, 3 h, 30° C., 50% reduction of test compound. The protocol: A test compound (10 mM) was diluted 20-fold with each redox buffer solution and incubated for 3 h in a 30° C. water bath. Then, compounds were analyzed by HPLC. The area of peaks corresponding to the oxidized and reduced forms of test compound based on specific retention time was calculated and plotted as percent of total peak area against the Nernst equation value (mV) at x-axis. The Nernst equation value corresponding to 50% reduction of test compound was set as the midpoint redox potential value for test compound.
The redox potential values of the test compounds were analyzed based on the potential values established in redox buffer solutions where reduced and oxidized DTT are mixed at various ratios.

Series [6] deals with Tyr 1175 phosphorylation of VEGF receptor-2 (VEGFR2) in HAEC. Description: Immunoblot of VEGF-mediated signaling in PrxII knock-down HAEC. The following applies: HAECs depleted of PrxII expression, FIG. 5. Format: cell-based, human. On the procedure:
as §1
In human aortic endothelial cell (HAEC) and human pulmonary artery endothelial cell (PAEC) in which PrxII was knocked out by transfecting the PrxII siRNA, the ability of test compounds to replace the cellular function of PrxII was evaluated. That is, the efficacy of the new compounds was verified in terms of signaling pathways induced by VEGF that regulates the growth and migration of vascular endothelial cells in the aorta and pulmonary artery. Activation of VEGF-induced signaling pathway was analyzed by an immunoblot method using an antibody that specifically recognizes phosphorylation of Tyr 1175, which is a major phosphorylation site on VEGF receptor-2 (VEGFR2).

Series [7] deals with human aortic endothelial cell (HAEC). Description: VEGF-induced proliferation assay, HAEC (PrxII siRNA). Type of series: cell-based. The following applies: for Degree of HAEC proliferation: VEGF-A 25 ng/mL, percent of untreated control. On the procedure: (§2) HAECs and PAECs were transfected with a PrxII-specific siRNA using RNAi MAX transfection reagent according to manufacturer's protocol. After 24 hours, transfected cells (3,000 cells/well) were seeded in a 96-well culture plate. At 12 h after seeding, cells were serum-starved for additional 18 h in EBM basal medium containing 0.5% FBS. Test compounds were serially diluted with the same basal medium containing 0.5% FBS, added to the cells ([…]), and incubated for 2 h. After treatment, cells were placed in fresh EBM medium containing 0.5% FBS and VEGF-A (25 ng/mL) for growth factor stimulation and further cultured for 24 h.
(§3) The degree of cell proliferation was measured using the Cell Titer-GLO kit ([…]). Data are the percent of luminescence intensity averaged from three replicate wells versus that of untreated control group.
In human aortic endothelial cell (HAEC) and human pulmonary artery endothelial cell (PAEC) in which PrxII was knocked out by transfecting the PrxII siRNA, the ability of test compounds to augment the VEGF-induced proliferation of vascular endothelial cells was evaluated. In Table 7, the degree of proliferation in the compound-treated groups is expressed as percent of the degree of proliferation in untreated control group. The effective concentrations of test compounds increasing cell proliferation by 50% (EC50) is also listed.

For series [8], the system named is human pulmonary artery smooth muscle cell (PASMC). In words: PDGF-induced proliferation assay, PASMC (PrxII siRNA). Particulars: for Degree of PASMC proliferation: PDGF-BB 25 ng/mL, percent of untreated control. Type of series: cell-based. The protocol: as §2, with “HASMCs” for “HAECs”, “PASMCs” for “PAECs”, “SmBM” for “EBM”, “PDGF-BB” for “VEGF-A”
as §3
(§4) In human aortic smooth muscle cell (HASMC) and human pulmonary artery smooth muscle cell (PASMC) in which PrxII was knocked out by transfecting the PrxII siRNA, the ability of test compounds to inhibit the PDGF-induced proliferation of vascular smooth muscle cells was evaluated. In Table 6, the degree of proliferation in the compound-treated groups is expressed as percent of the degree of proliferation in untreated control group. The concentrations of test compounds corresponding to 50% growth inhibition (IC50) is also listed.

Series [9] has as its system human aortic smooth muscle cell (HASMC). In words: PDGF-induced proliferation assay, HASMC (PrxII siRNA). Format: cell-based. Particulars: for Degree of HASMC proliferation: PDGF-BB 25 ng/mL, percent of untreated control. On the procedure:
as §2, with “HASMCs” for “HAECs”, “PASMCs” for “PAECs”, “SmBM” for “EBM”, “PDGF-BB” for “VEGF-A”
as §3, §4

Where two headings read alike, the source gives them in different places. A value given as a limit tells only on which side of the number the result lay.

`CN1C(=O)C2CSSC1(C)C(=O)N2Cc1cnn(C)c1` (centres unmarked) [Compound 13, 1,8-dimethyl-6-((1-methyl-1H-pyrazol-4-yl)methyl)-2,3-dithia-6,8-diazabicyclo[3.2.2]nonane-7,9-dione]: the CC50 in “in vitro [1]” and in the series “in vitro [3]” was greater than 500000 nM throughout. Further, the “Peroxidase activity for H2O2 reduction” value in [2] is 4.78 nmol/min.

What is called EC50 is the concentration giving half of the maximal effect. `C=CCN1C(=O)C2SSC1C(=O)N2CC=C` [Control compound (A5), reference compound] had an EC50 in the series on NIH-3T3 cells of 15.2 nM. In addition, in series [2], the “Peroxidase activity for H2O2 reduction” value was found to be 4.25 nmol/min. Also, in “in vitro [3]”, the CC50 was 62300 nM.

On to `CN1C(=O)C2CSSC1(C)C(=O)N2Cc1ccccc1` (centres unmarked) [Compound 2, 6-benzyl-1,8-dimethyl-2,3-dithia-6,8-diazabicyclo[3.2.2]nonane-7,9-dione], for which, in [4], the “Effect on phosphorylation of Tyr 857 on PDGFR” value (from here on “Effect … on PDGFR”) is “strongly abolish the phosphorylation”. This compound also showed an EC50 in the series with NIH-3T3 cells of 6.47 nM. In series [5], the “Midpoint redox potential (E m)” value is reported as −293.19 mV. Besides, in series [6], the “Effect on phosphorylation of Tyr 1175 on VEGFR2” value (from here on “Effect … on VEGFR2”) is “strongly abolish the phosphorylation”. Further, in series [2], the “Peroxidase activity for H2O2 reduction” value amounted to 5.05 nmol/min. The CC50 in the series “in vitro [3]” is greater than 500000 nM.

For the compound `Cc1cccc(CN2C(=O)C3(C)SSCC2C(=O)N3C)n1` (centres unmarked) [Compound 12, 1,8-dimethyl-6-((6-methylpyridin-2-yl)methyl)-2,3-dithia-6,8-diazabicyclo[3.2.2]nonane-7,9-dione], the CC50 in “in vitro [1]” and in “in vitro [3]” was greater than 500000 nM throughout. Moreover, the “Peroxidase activity for H2O2 reduction” value in series [2] is 4.94 nmol/min.

As for `CN1C(=O)C2CSSC1(C)C(=O)N2Cc1ccccn1` (centres unmarked) [Compound 6, 1,8-dimethyl-6-(pyridin-2-ylmethyl)-2,3-dithia-6,8-diazabicyclo[3.2.2]nonan-7,9-dione], the “Effect … on PDGFR” value in series [4] is “strongly abolish the phosphorylation”. For the same compound, in the series with NIH-3T3 cells, the EC50 amounted to 5.99 nM. For the same compound, the “Midpoint redox potential (E m)” value in series [5] was −290.39 mV. For the same compound, the “Effect … on VEGFR2” value in [6] is recorded as “strongly abolish the phosphorylation”. The “Peroxidase activity for H2O2 reduction” value in [2] was 4.57 nmol/min. In “in vitro [3]”, this compound yielded a CC50 of 341000 nM.

For orientation: IC50 means the midpoint of a concentration-inhibition curve. Low readings indicate greater potency, high ones weaker potency. For the compound `CCN1C(=O)C23COCCN2C(=O)C1CSS3` (centres unmarked) [Compound 10, 12-ethyltetrahydro-5H,10H-4,10a-(epiminomethano)[1,4]oxazino[3,4-c][1,2,4]dithiaze pine-5,11-dione], the “Effect … on PDGFR” value in series [4] was “strongly abolish the phosphorylation”. Besides, the “Degree of HAEC proliferation” value in series [7] (2.5 nM) was found to be 111.6%; in [7] (5 nM), 122.8%; in [7] (10 nM), 127.6%; in series [7] (25 nM) it was 140.7%; in series [7] (50 nM) it was 175.1%; in series [7] (100 nM) it was 159.0%. The compound further showed an EC50 in series [7] (Homo sapiens, Endothelial cell, effective concentration increasing cell proliferation by 50%, VEGF-stimulated) of 19.3 nM. Further, the “Degree of PASMC proliferation” value in series [8] (2.5 nM) was found to be 90.5%; in [8] (5 nM), 54.1%; in [8] (10 nM) it was 44.1%; in series [8] (25 nM) it was 21.9%; in [8] (50 nM), 17.5%; in [8] (100 nM), 7.0%. The IC50 in [8] (Homo sapiens, PASMC, 50% growth inhibition, PDGF-stimulated) stood at 8.28 nM; in series [9] (Homo sapiens, HASMC, 50% growth inhibition, PDGF-stimulated), 5.48 nM. In addition, the “Midpoint redox potential (E m)” value in series [5] was −268.53 mV. Besides, the “Effect … on VEGFR2” value in series [6] was “strongly abolish the phosphorylation”. Also, the “Peroxidase activity for H2O2 reduction” value in series [2] came out at 5.06 nmol/min. For the same compound, the “Degree of HASMC proliferation” value in [9] (2.5 nM) is on record as 75.5%; in series [9] (5 nM), 53.8%; in series [9] (10 nM), 31.1%; in [9] (25 nM), 4.6%.
